Results from the NIST ThermoML archive (doi:10.1016/j.jct.2017.10.002).
Where “and” joins values, the source holds several entries; their conditions need not be identical. Equal values may be shown once.

Conditions: 101.33 kPa, relaxation calorimetry

CCc1ncc[n-]1.CCc1ncc[n-]1.[Zn+2] [zinc(II) 2-ethylimidazolide]
molar entropy
Conditions | Crystal | Glass
1 K | – | 0.008253 J/K/mol
2 K | – | 0.0244 J/K/mol
3 K | – | 0.06286 J/K/mol
4 K | – | 0.1418 J/K/mol
5 K | 0.3545 J/K/mol and 0.1203 J/K/mol and 0.3132 J/K/mol | 0.2736 J/K/mol
6 K | 0.5863 J/K/mol and 0.2089 J/K/mol and 0.5177 J/K/mol | 0.464 J/K/mol
7 K | 0.8825 J/K/mol and 0.3306 J/K/mol and 0.7801 J/K/mol | 0.7139 J/K/mol
8 K | 1.241 J/K/mol and 0.4909 J/K/mol and 1.099 J/K/mol | 1.022 J/K/mol
9 K | 1.66 J/K/mol and 0.6925 J/K/mol and 1.472 J/K/mol | 1.385 J/K/mol
10 K | 2.135 J/K/mol and 0.9364 J/K/mol and 1.895 J/K/mol | 1.801 J/K/mol
15 K | 5.252 J/K/mol and 2.784 J/K/mol and 4.686 J/K/mol | 4.579 J/K/mol
20 K | 9.321 J/K/mol and 5.606 J/K/mol and 8.386 J/K/mol | 8.3 J/K/mol
25 K | 14.04 J/K/mol and 9.263 J/K/mol and 12.76 J/K/mol | 12.73 J/K/mol
30 K | 19.18 J/K/mol and 13.59 J/K/mol and 17.67 J/K/mol | 17.72 J/K/mol
35 K | 24.62 J/K/mol and 18.45 J/K/mol and 23 J/K/mol | 23.14 J/K/mol
40 K | 30.28 J/K/mol and 23.75 J/K/mol and 28.69 J/K/mol | 28.89 J/K/mol
45 K | 36.11 J/K/mol and 29.41 J/K/mol and 34.67 J/K/mol | 34.85 J/K/mol
50 K | 42.08 J/K/mol and 35.35 J/K/mol and 40.84 J/K/mol | 40.96 J/K/mol
60 K | 54.27 J/K/mol and 47.75 J/K/mol and 53.56 J/K/mol | 53.5 J/K/mol
70 K | 66.58 J/K/mol and 60.58 J/K/mol and 66.61 J/K/mol | 66.3 J/K/mol
80 K | 78.9 J/K/mol and 73.57 J/K/mol and 79.79 J/K/mol | 79.14 J/K/mol
90 K | 91.13 J/K/mol and 86.51 J/K/mol and 92.92 J/K/mol | 91.86 J/K/mol
100 K | 103.17 J/K/mol and 99.26 J/K/mol and 105.89 J/K/mol | 104.37 J/K/mol
110 K | 114.97 J/K/mol and 111.76 J/K/mol and 118.62 J/K/mol | 116.61 J/K/mol
120 K | 126.51 J/K/mol and 123.99 J/K/mol and 131.07 J/K/mol | 128.56 J/K/mol
130 K | 137.77 J/K/mol and 135.92 J/K/mol and 143.23 J/K/mol | 140.23 J/K/mol
140 K | 148.77 J/K/mol and 147.57 J/K/mol and 155.11 J/K/mol | 151.61 J/K/mol
150 K | 159.51 J/K/mol and 158.95 J/K/mol and 166.72 J/K/mol | 162.74 J/K/mol
160 K | 170.01 J/K/mol and 170.08 J/K/mol and 178.07 J/K/mol | 173.62 J/K/mol
170 K | 180.29 J/K/mol and 180.98 J/K/mol and 189.19 J/K/mol | 184.28 J/K/mol
180 K | 190.36 J/K/mol and 191.68 J/K/mol and 200.09 J/K/mol | 194.75 J/K/mol
190 K | 200.25 J/K/mol and 202.19 J/K/mol and 210.8 J/K/mol | 205.03 J/K/mol
200 K | 209.96 J/K/mol and 212.52 J/K/mol and 221.34 J/K/mol | 215.14 J/K/mol
210 K | 219.52 J/K/mol and 222.71 J/K/mol and 231.73 J/K/mol | 225.11 J/K/mol
220 K | 228.95 J/K/mol and 232.75 J/K/mol and 241.97 J/K/mol | 234.95 J/K/mol
230 K | 238.24 J/K/mol and 242.68 J/K/mol and 252.1 J/K/mol | 244.67 J/K/mol
240 K | 247.43 J/K/mol and 252.5 J/K/mol and 262.12 J/K/mol | 254.28 J/K/mol
250 K | 256.52 J/K/mol and 262.22 J/K/mol and 272.04 J/K/mol | 263.8 J/K/mol
260 K | 265.53 J/K/mol and 271.86 J/K/mol and 281.89 J/K/mol | 273.23 J/K/mol
270 K | 274.45 J/K/mol and 281.43 J/K/mol and 291.67 J/K/mol | 282.58 J/K/mol
273.15 K | 277.25 J/K/mol and 284.43 J/K/mol and 294.74 J/K/mol | 285.51 J/K/mol
280 K | 283.31 J/K/mol and 290.94 J/K/mol and 301.39 J/K/mol | 291.87 J/K/mol
290 K | 292.12 J/K/mol and 300.39 J/K/mol and 311.06 J/K/mol | 301.09 J/K/mol
298.15 K | 299.26 J/K/mol and 308.06 J/K/mol and 318.92 J/K/mol | 308.57 J/K/mol
300 K | 300.87 J/K/mol and 309.8 J/K/mol and 320.7 J/K/mol | 310.26 J/K/mol
